For 87 molecules, melting point results are on record in a melting point compilation (Tetko et al.; mined from patent text by program, amines drawn as free bases though some values may be those of a salt).

In the case of `CCN(CC)CCOc1ccc(C(O)(CC)c2cc(C)ccc2C)cc1` (configuration not stated), the melting point lay in the range of 89 to 90 °C.
Take `O=C(Nc1ccc(C2=CCN(C(=O)OCc3ccccc3)CC2)cc1)OCc1ccccc1`: the melting point is 146 to 148 °C.
In the case of `C=CCc1c(Br)cc(C(C)(C)c2cc(Br)c(CC=C)c(Br)c2)cc1Br` it was 114 °C; in that of `CS(=O)(=O)c1ccc(-n2cncc2-c2ccc(Cl)cc2)cc1`, 192 to 193 °C; in that of `O=C(OCCOc1ccc(OCCO)cc1)c1ccc(O)c(Cl)c1`, 87 to 88 °C.
In the case of `CC(C)(C)c1cc(C(c2ccc(C#N)cc2)N2CCCCC2)cc(C(C)(C)C)c1O` (configuration not stated) it was 139 to 140 °C; in that of `CCc1cnc(N2CCC(c3ccc4[nH]c(-c5ccc(S(C)(=O)=O)cc5F)nc4c3)CC2)nc1`, 220 to 224 °C; in that of `CCOCc1nc2c(N)nc3cc(/C=C/C(=O)OC)ccc3c2n1CCCCN1CCCS1(=O)=O`, 162 to 163 °C.
In the case of `CCOC(=O)C(=O)Nc1cc(NC(=O)C(=O)OCC)c(OC)nc1OC`, the melting point lay within 170 to 173 °C.
In the case of `CCCCCc1c(/C=C/C(=O)O)sc2cc(OC)ccc12` it was 209 to 210 °C.
As for `O=C(NCCc1ccccc1Cl)c1c(Cl)ccc2nc(N3CC[C@H](NCCO)C3)ccc12`, the figure is 170 to 172 °C; as for `CC(c1ccccc1)C1(OC(=O)C(C)(C)C)C(=O)NC(=O)NC1=O` (configuration not stated), 205 to 207 °C.
As for `COc1ccc(SC(C(=O)NO)C(C)C)cc1` (configuration not stated), the figure is 119 °C.
The molecule `CC(C)(C)Nc1nc(Cl)cc(N2CCCC2)n1` showed a melting point of 153 to 157 °C.
`CC(C)CCOc1ccc(-c2c(Cl)c(CN3C(=O)CCC3=O)nc3sc4c(c23)CCNC4)cc1`: the melting point was in the range of 226 to 227 °C.
The molecule `CC(C)(SC(F)(F)F)C(=O)C(Oc1ccc(Cl)cc1)n1cncn1` (configuration not stated) registered a melting point of 66 °C.
`CCOC(=O)c1cn(C)c2nc3cc(Cl)c(F)cc3cc2c1=O` showed a melting point of 360 to 362 °C.
In the case of `O=[N+]([O-])c1cccc2c1c([N+](=O)[O-])cc1nc(O)c(O)nc12` it was over 300 °C; in that of `Cc1cn(C)cc1C(=O)O`, 166 to 168 °C; in that of `CCCCCN(CCCCC)C(=O)C(Cc1ccc(OCC(=O)O)c(C(=O)O)c1)NC(=O)C(Cc1ccccc1)NC(=O)OC(C)(C)C` (configuration not stated), 87 to 90 °C.
As for `CC(=O)OCCOc1cccc(C(N)=O)c1`, the figure is 121 to 122 °C; as for `CC(C)=CCC1(C(F)(F)F)C(=O)NC(=O)NC1=O`, 150 to 153 °C.
In the case of `Cc1[nH]nc(Nc2ccccc2)c1C(=O)OC(C)C` it was 138 to 139 °C; in that of `COc1cc2nc(-c3cccs3)cc(C(=O)O)c2cc1OC`, 260 to 263 °C.
`Clc1ccc(N2CCCCC2)cc1`: the melting point is 69 °C.
As for `CCOC(=O)N1C=CC(c2c(-c3cccs3)nc3ccc(N4CCN(C(=O)OC(C)(C)C)CC4)nn23)C=C1`, the figure is 155 °C; as for `NC(=O)c1ccc(-c2cnc3[nH]c(=O)n(CC4CCCCC4)c3n2)cc1`, 293 to 295 °C.
In the case of `COc1ccc(N2CNC(=O)C23CCN(CCCN(c2ccccc2)c2ccccc2)CC3)cc1` it was 156 to 158 °C; in that of `CCn1cc(C(=O)O)c(=O)c2cc(F)c(N3CCN(C(=O)OC(OC(=O)C(C)c4ccc(CC(C)C)cc4)C(=O)OC(C)C)CC3)cc21` (configuration not stated), 88 to 96.5 °C; in that of `CCOc1ccc(/C=C/c2nc3c(c(=O)n(CC)c(=O)n3CC)n2C)cc1`, 185 to 186 °C.
As for `C#Cc1ccc(C(CC2CCCC2)C(=O)O)cc1` (configuration not stated), the figure is 80 to 83 °C; as for `COc1cc([N+](=O)[O-])c([N+](=O)[O-])cc1O`, 172 °C; as for `CC(C)(C)c1cc(C=C2SC(NC#N)=NC2=O)cc(C(C)(C)C)c1O`, 240 to 242 °C.
`CCCCCC(=O)c1ncc(S(N)(=O)=O)s1` registered a melting point of 124 to 125 °C.
In the case of `Cn1ncc2c(c1=O)SCCNC2C(=O)c1ccc([N+](=O)[O-])cc1` (configuration not stated) it was 230 to 232 °C.
`COC(=O)c1ccc(C(=O)NCC(C)C)c([N+](=O)[O-])c1`: the melting point lay in the range of 90 to 91 °C.
In the case of `O=C(Nc1ccc(S(=O)(=O)Oc2ccccc2)cc1[N+](=O)[O-])NS(=O)(=O)Cl` it was 190 °C; in that of `CSc1nc(P(=O)(C2CCCCC2)C2CCCCC2)cc(P(=O)(C2CCCCC2)C2CCCCC2)n1`, 197 to 198 °C; in that of `N#Cc1c(Cl)c2cc(F)ccc2n(Cc2ccccc2)c1=O`, 228 °C.
In the case of `O=S(=O)(CCCl)CCC(F)(F)C(F)(F)C(F)(F)C(F)(F)C(F)(F)C(F)(F)C(F)(F)C(F)(F)F`, the melting point fell in the range of 130 to 131 °C.
`O=C(O)c1ccccc1COc1cccc(Cl)c1` yielded a melting point of 154 to 155 °C.
As for `COC(=O)c1ccc2occ(-c3cc(F)ccc3F)c2c1`, the melting point was 161 to 162 °C.
Consider `COC(=O)CCC(=O)c1ccc(C)cc1O`, for which the melting point lay within 61 to 63 °C.
In the case of `O=c1ccn(C/C=C/COC(c2ccccc2)(c2ccccc2)c2ccccc2)c(=O)[nH]1` it was 70 to 72 °C; in that of `CC(Nc1ccc(Oc2ccc(O)cc2)cc1)C(=O)O` (configuration not stated), 188 °C; in that of `CCC(C)NC1=NS(=O)(=O)c2ccc(Cl)cc2N1` (configuration not stated), 242 to 245 °C.
Molecule `CONC(=O)c1ccccc1OCc1ccc(Cl)cc1Cl` registered a melting point of 100 to 102 °C.
As for `CCOC(=O)CC1(c2ccc(Cl)c(Cl)c2)CNC(=O)C1` (configuration not stated), the figure is 87 to 90 °C; as for `Cn1c(COc2cccc([N+](=O)[O-])c2)nc2ccccc21`, 183 to 185 °C; as for `COc1ccc(CNc2nc(-c3ccc(C(=O)O)cc3)nc3sc(C(F)(F)F)cc23)cc1OC`, 250 °C.
For the molecule `Cc1ncc(-c2nc3cc4c(cc3[nH]2)NC(=O)C4(C)C)cn1`, the melting point is over 350 °C.
As for `COc1ccccc1N1CCN(CCNC(=O)c2cccc(OC)c2OC)CC1`, the figure is 133 to 134 °C; as for `CCCN1CC(OCC2CC2)(C(F)(F)F)c2cc(Cl)ccc2NC1=O` (configuration not stated), 156 to 158 °C.
Take `COc1ccc(-n2nc(NC(=O)N(C)C)cc2-c2ccc(OCCNC(N)=O)cc2)cc1`: the melting point is 193 to 196 °C.
Molecule `Cc1cn2cc(Cl)ccc2n1` gave a melting point of 94 to 96 °C.
In turn, `O=C(NCc1ccc(Cl)cc1)c1cn2c3c(cc(CN4CCOCC4)cc3c1=O)OC(CNCc1ccncc1)C2` (configuration not stated) gave a melting point of 164 to 167 °C.
As for `CCOC(=O)c1nn(-c2ccccc2C)c(=O)c2c(N)scc12`, the figure is 209 to 210 °C; as for `NC(CN1CCC(=C2c3ccccc3C=Cc3ccccc32)CC1)C(=O)NCC(=O)O` (configuration not stated), 175 to 176 °C.
For `N#Cc1c2c(c3c(c1N1CCCCC1)Cc1ccccc1-3)-c1ccccc1C2`, the melting point was in the range of 200 to 202 °C.
As for `CCC#C[C@]1(C(F)(F)F)O[C@@H](c2ccccc2)C(=O)Nc2ccc(Cl)cc21` (relative stereo), the figure is 198 to 199 °C.
For the molecule `Cn1c(C(F)(F)F)cc(=O)n(-c2ccc(O)cc2F)c1=O`, the melting point lay within 185 to 190 °C.
As for `OCC1CCCN1c1cc(N2CCOCC2)nc(-n2c(C(F)F)nc3c(O)cccc32)n1` (configuration not stated), the figure is 195 to 198 °C.
In the case of `O=C(O)c1ccc(SC(Cn2ccnc2)c2ccc(C(F)(F)F)cc2)cc1` (configuration not stated) it was 92 to 95 °C; in that of `O=C(O)C(Cc1ccc2ccccc2c1)NC(=O)C(CS)C(F)(F)F` (configuration not stated), 165 to 167 °C.
In turn, `COC(=O)C1(Cc2ccc(Br)cc2)CCCN1C(=O)Nc1cc(Cl)cc(Cl)c1` (configuration not stated) showed a melting point of 171 °C.
As for `COCCn1cc2c(C3C(=O)Nc4ccc(Br)cc43)nc(Cl)nc2n1` (configuration not stated), the figure is over 300 °C.
`CS(=O)(=O)c1ccc2c(C=C[N+](=O)[O-])c[nH]c2c1` gave a melting point of over 250 °C.
On to `CC(C)CC(C(=O)Nc1cc(Cl)cc(Cl)c1)N1C(=O)C=CC1=O` (configuration not stated), for which the melting point came out at 150 °C.
In the case of `Cc1cc(CCCCCOc2c(Cl)cc(C3=NCCC3)cc2Cl)on1` it was 57 to 59 °C; in that of `COc1cc(Nc2c(C#N)cnc3cc(-c4cccc(NC(C)=O)c4)ccc23)c(Cl)cc1Cl`, 262 to 263 °C; in that of `N#Cc1cccc(CN2C(=O)C3(COc4cc5c(cc43)CCO5)c3ccccc32)c1` (configuration not stated), 187 to 193 °C.
Consider `CC1(C)SC(CCCc2ccc(C(=O)O)cc2)N(CCC2(O)CCCCC2)C1=O` (configuration not stated), for which the melting point was 132 to 137 °C.
In the case of `Cc1cc(C2(C(F)(F)F)CC(c3ccc(Cl)cc3)=NN2C)ccc1NC(=O)c1cccc(I)c1C(=O)NC(C)C` (configuration not stated) it was 90 to 92 °C; in that of `CCCc1cc(Cl)cc2nc(Cc3ccc(OC)c(OC4CCCC4)c3)oc12`, 54 to 55 °C.
`CC(=O)Cc1ccc2c(c1)Cc1cccnc1O2`: the melting point lay within 124 to 125 °C.
`COc1ccc(CCN)cc1S(N)(=O)=O` registered a melting point of 164 to 167 °C.
In the case of `CN1CCC(c2c(O)cc(O)c3c(=O)cc(Sc4ccccc4Cl)oc23)C(O)C1` (configuration not stated) it was 110 °C.
`O=C(OCCN1CCOC1=O)c1ccccc1Nc1ccnc2cc(C(F)(F)F)ccc12` yielded a melting point of 124 to 125 °C.
In the case of `CSc1ccc2c(=O)n([C@H](C)[C@](O)(Cn3cncn3)c3ccc(F)cc3F)cnc2c1` it was 152 to 153 °C; in that of `Nc1cccc([C@H]2C[C@H]2NC(=O)Nc2ccc(Cl)cn2)c1` (racemic), 178 °C.
In the case of `COc1ccccc1-n1c(=O)[nH]c2c(C(N)=O)nc(-c3cccc4ncccc34)nc21` it was 335 to 337 °C.
As for `Cc1[nH]c(=O)c(C#N)c2c1CC(c1ccccc1)CC2` (configuration not stated), the figure is over 290 °C; as for `CCOC(=O)CN1C(=O)C2=C(c3ccccc3)N(CC(=O)OCC)C(=O)C2=C1c1ccccc1`, 204 to 208 °C.
Consider `Cc1[nH]c(-c2ccccc2)nc1CO`, for which the melting point lay within 197 to 199 °C.
Consider `CCOC(=O)c1ccc(NC=Nc2ccc3[nH]cc(CCN4C(=O)c5ccccc5C4=O)c3c2)cc1`, for which the melting point came to 110 °C.
As for `CN1CCC(c2c[nH]c3ccc(C(=O)c4ccc5ccccc5c4)cc23)CC1`, the figure is 92 °C; as for `CN(CCC(=O)Nc1ccc2[nH]ncc2c1)Cc1ccccc1`, 140 to 141 °C.

As a reminder, the melting point is the temperature of the solid-liquid transition.
